The target in the experiment is T1, μ-opioid receptor (Homo sapiens, UniProt P35372).
T1 construct: purchased Perkin Elmer, Shelton, Conn
Nature of the experiment: μ-opioid receptor [35S]GTPγS functional assay. The note with it: for Emax: maximal effect relative to DAMGO. It counts as biochemical. The protocol:
[^35S]GTPγS functional assays were conducted using freshly thawed μ-receptor membranes (Perkin Elmer, Shelton, Conn.). Assay reactions were prepared by sequentially adding the following reagents to binding buffer (100 mM NaCl, 10 mM MgCl2, 20 mM HEPES, pH 7.4) on ice (final concentrations indicated): membrane protein (0.026 mg/mL), saponin ([…]), GDP ([…]) and [^35S]GTPγS (0.20 nM; Perkin Elmer, Shelton, Conn.). The prepared membrane solution (190 μl/well) was transferred to 96-shallow well polypropylene plates containing 10 μl of 20× concentrated stock solutions of the agonist [D-Ala^2, N-methyl-Phe^4 Gly-ol^5]-enkephalin (DAMGO) prepared in dimethyl sulfoxide (DMSO). Plates were incubated for 30 min at about 25° C. with shaking. Reactions were terminated by rapid filtration onto 96-well Unifilter GF/B filter plates (Perkin Elmer, Shelton, Conn.) using a 96-well tissue harvester (Perkin Elmer, Shelton, Conn.) followed by three filtration washes with 200 μl of ice-cold wash buffer (10 mM NaH2PO4, 10 mM Na2HPO4, pH 7.4). Filter plates were subsequently dried at 50° C. for 2-3 hours. BetaScint scintillation cocktail (Perkin Elmer, Shelton, Conn.) was added (50 μl/well) and plates were counted using a Packard Top-Count for 1 min/well. Data were analyzed using the sigmoidal dose-response curve fitting functions in GraphPad PRISM v. 3.0, or an in-house function for non-linear, sigmoidal dose-response curve-fitting.
μ GTP EC50 is the concentration of a compound providing 50% of the maximal response for the compound at a μ-opioid receptor.
μ GTP Emax (%) is the maximal effect elicited by a compound relative to the effect elicited by DAMGO, a standard agonist. Generally, the μ GTP Emax (%) value measures the efficacy of a compound to treat or prevent pain or other Conditions.
On the technique in general: Binding of GTPγS marks nucleotide exchange on a G protein.

Some results are limits rather than exact numbers.

Results on 19 compounds are retold here after patent US10030021B2, “Spirocyclic morphinans and use thereof” (Purdue Pharma L.P., priority 2014, dated 2018).

T1 sequence (P35372 whole entry, species assumed): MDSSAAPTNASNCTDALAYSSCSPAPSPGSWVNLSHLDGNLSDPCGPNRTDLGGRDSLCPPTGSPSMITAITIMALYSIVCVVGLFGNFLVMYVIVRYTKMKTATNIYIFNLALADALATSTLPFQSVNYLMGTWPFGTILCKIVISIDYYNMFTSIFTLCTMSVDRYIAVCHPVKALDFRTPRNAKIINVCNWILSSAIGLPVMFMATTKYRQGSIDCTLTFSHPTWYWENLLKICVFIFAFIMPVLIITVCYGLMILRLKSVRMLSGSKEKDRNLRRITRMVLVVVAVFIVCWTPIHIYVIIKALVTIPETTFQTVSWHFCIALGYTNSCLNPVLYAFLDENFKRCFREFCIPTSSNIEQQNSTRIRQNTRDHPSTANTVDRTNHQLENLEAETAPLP

As for `CCN1C(=O)N(CC)[C@]2(CC[C@@]3(O)[C@H]4Cc5ccc(C#N)cc5[C@@]3(CCN4C)C2)C1=O` [Compound 32, (4S,4b′R,8a′S,9′R)-1,3-diethyl-8a′-hydroxy-11′-methyl-2,5-dioxo-8′,8a′,9′,10′-tetrahydro-5′H,7′H-spiro[imidazolidine-4,6′-[9,4b](epiminoethano)phenanthrene]-3′-carbonitrile], the EC50 was above 20 µM and the Emax was 16.3 ± 1.76%.

`CCN1C(=O)N(CC)[C@]2(CC[C@@]3(O)[C@H]4Cc5ccc(O)cc5[C@@]3(CCN4)C2)C1=O` [Compound 20, (4S,4b′R,8a′S,9′R)-1,3-diethyl-3′,8a′-dihydroxy-8′,8a′,9′,10′-tetrahydro-5′H,7′H-spiro[imidazolidine-4,6′-[9,4b](epiminoethano)phenanthrene]-2,5-dione]: the midpoint of the response, the EC50, lay at 1.88 ± 0.252 µM and the Emax was determined as 28 ± 1.53%.

`COc1ccc2c(c1)[C@]13CCN(CCCN(C)C)[C@H](C2)[C@]1(O)CC[C@]1(C3)C(=O)N(CC2CC2)C(=O)N1CC1CC1` [Compound 13, (4S,4b′R,8a′S,9′R)-1,3-bis(cyclopropylmethyl)-11′-(3-(dimethylamino)propyl)-8a′-hydroxy-3′-methoxy-8′,8a′,9′,10′-tetrahydro-5′H,7′H-spiro[imidazolidine-4,6′-[9,4b]-(epiminoethano)phenanthrene]-2,5-dione]: the EC50 was above 20 µM and the Emax was 1%.

Consider `CCN1C(=O)N(CC)[C@]2(CC[C@@]3(O)[C@H]4Cc5ccc(C(N)=O)cc5[C@@]3(CCN4C)C2)C1=O` [Compound 33, (4S,4b′R,8a′S,9′R)-1,3-diethyl-8a′-hydroxy-11′-methyl-2,5-dioxo-8′,8a′,9′,10′-tetrahydro-5′H,7′H-spiro[imidazolidine-4,6′-[9,4b](epiminoethano)phenanthrene]-3′-carboxamide], for which the EC50 came to 0.974 ± 0.117 µM and the Emax is 39.3 ± 1.78%.

Consider `O=C1NC(=O)[C@@]2(CC[C@@]3(O)[C@H]4Cc5ccc(O)cc5[C@@]3(CCN4)C2)N1` [Compound 22, (4S,4b′R,8a′S,9′R)-3′,8a′-dihydroxy-8′,8a′,9′,10′-tetrahydro-5′H,7′H-spiro[imidazolidine-4,6′-[9,4b](epiminoethano)phenanthrene]-2,5-dione], for which the EC50 was 2.85 ± 0.216 µM and the Emax is 71.7 ± 2.6%.

Consider `CCN1C(=O)N(CC)[C@]2(CC[C@@]3(O)[C@H]4Cc5ccc(OC)cc5[C@@]3(CCN4CCN(C)C)C2)C1=O` [Compound 8, (4S,4b′R,8a′S,9′R)-11′-(2-(dimethylamino)ethyl)-1,3-diethyl-8a′-hydroxy-3′-methoxy-8′,8a′,9′,10′-tetrahydro-5′H,7′H-spiro[imidazolidine-4,6′-[9,4b](epiminoethano)phenanthrene]-2,5-dione], for which the EC50 is above 20 µM and the Emax came out at 1%.

Regarding `COc1ccc2c(c1)[C@]13CCN(C)[C@H](C2)[C@@H]1CC[C@@]1(C3)NC(=O)NC1=O` [Compound 2, (4S,4b′S,8a′R,9′R)-3′-methoxy-11′-methyl-8′,8a′,9′,10′-tetrahydro-5′H,7′H-spiro[imidazolidine-4,6′-[9,4b](epiminoethano)phenanthrene]-2,5-dione], the EC50 turned out to be 18 ± 1.1 µM and the Emax came to 75.7 ± 0.88%.

Turning to `CN(C)CCCN1CC[C@]23C[C@@]4(CC[C@@]2(O)[C@H]1Cc1ccc(O)cc13)C(=O)N(CC1CC1)C(=O)N4CC1CC1` [Compound 28, (4S,4b′R,8a′S,9′R)-1,3-bis(cyclopropylmethyl)-11′-(3-(dimethylamino)propyl)-3′,8a′-dihydroxy-8′,8a′,9′,10′-tetrahydro-5′H,7′H-spiro[imidazolidine-4,6′-[9,4b](epiminoethano)-phenanthrene]-2,5-dione], the EC50 was above 20 µM and the Emax came to 1.36%.

Take `CCN1C(=O)N(CC)[C@]2(CC[C@@]3(O)[C@H]4Cc5ccc(/C(N)=N\O)cc5[C@@]3(CCN4C)C2)C1=O` [Compound 34, (4S,4b′R,8a′S,9′R,E)-1,3-diethyl-N′,8a′-dihydroxy-11′-methyl-2,5-dioxo-8′,8a′,9′,10′-tetrahydro-5′H,7′H-spiro[imidazolidine-4,6′-[9,4b](epiminoethano)phenanthrene]-3′-carboximidamide]: it took 17.2 ± 1.2 µM to reach a half-maximal effect (EC50) and the Emax came to 29.7 ± 1.18%.

With `COc1ccc2c(c1)[C@]13CCN(CCN(C)C)[C@H](C2)[C@]1(O)CC[C@]1(C3)C(=O)N(CC2CC2)C(=O)N1CC1CC1` [Compound 15, (4S,4b′R,8a′S,9′R)-1,3-bis(cyclopropylmethyl)-11′-(2-(dimethylamino)ethyl)-8a′-hydroxy-3′-methoxy-8′,8a′,9′,10′-tetrahydro-5′H,7′H-spiro[imidazolidine-4,6′-[9,4b]-(epiminoethano)phenanthrene]-2,5-dione], the EC50 was above 20 µM and the Emax came to 1%.

In the case of `CCN1C(=O)N(CC)[C@]2(CC[C@@]3(O)[C@H]4Cc5ccc(OC)cc5[C@@]3(CCN4)C2)C1=O` [Compound 18, (4S,4b′R,8a′S,9′R)-1,3-diethyl-8a′-hydroxy-3′-methoxy-8′,8a′,9′,10′-tetrahydro-5′H,7′H-spiro[imidazolidine-4,6′-[9,4b](epiminoethano)phenanthrene]-2,5-dione], the EC50 is above 20 µM and the Emax is 35.7 ± 1.2%.

`CN(C)CCN1CC[C@]23C[C@@]4(CC[C@@]2(O)[C@H]1Cc1ccc(O)cc13)C(=O)N(CC1CC1)C(=O)N4CC1CC1` [Compound 25, (4S,4b′R,8a′S,9′R)-1,3-bis(cyclopropylmethyl)-11′-(2-(dimethylamino)ethyl)-3′,8a′-dihydroxy-8′,8a′,9′,10′-tetrahydro-5′H,7′H-spiro[imidazolidine-4,6′-[9,4b](epiminoethano)-phenanthrene]-2,5-dione]: the EC50 is above 20 µM and the Emax is 1%.

Turning to `CCN1C(=O)N(CC)[C@]2(CC[C@@]3(O)[C@H]4Cc5ccc(OC)cc5[C@@]3(CCN4CCCN(C)C)C2)C1=O` [Compound 14, (4S,4b′R,8a′S,9′R)-11′-(3-(dimethylamino)propyl)-1,3-diethyl-8a′-hydroxy-3′-methoxy-8′,8a′,9′,10′-tetrahydro-5′H,7′H-spiro[imidazolidine-4,6′-[9,4b](epiminoethano)-phenanthrene]-2,5-dione], the EC50 was above 20 µM and the Emax came to 1%.

Turning to `O=C1N(CC2CC2)C(=O)[C@@]2(CC[C@@]3(O)[C@H]4Cc5ccc(O)cc5[C@@]3(CCN4)C2)N1CC1CC1` [Compound 23, (4S,4b′R,8a′S,9′R)-1,3-bis(cyclopropylmethyl)-3′,8a′-dihydroxy-8′,8a′,9′,10′-tetrahydro-5′H,7′H-spiro[imidazolidine-4,6′-[9,4b](epiminoethano)phenanthrene]-2,5-dione], the EC50 is 3.79 ± 0.287 µM and the Emax amounted to 15.7 ± 0.33%.

As to `CCN1C(=O)N(CC)[C@]2(CC[C@@]3(O)[C@H]4Cc5ccc(O)cc5[C@@]3(CCN4CCCN(C)C)C2)C1=O` [Compound 27, (4S,4b′R,8a′S,9′R)-11′-(3-(dimethylamino)propyl)-1,3-diethyl-3′,8a′-dihydroxy-8′,8a′,9′,10′-tetrahydro-5′H,7′H-spiro[imidazolidine-4,6′-[9,4b](epiminoethano)phenanthrene]-2,5-dione], the EC50 is above 20 µM and the Emax came out at 1%.

Consider `CN(C)CCN1CC[C@]23C[C@]4(CC[C@@]2(O)[C@H]1Cc1ccc(O)cc13)NC(=O)NC4=O` [Compound 29, (4S,4b′R,8a′S,9′R)-11′-(2-(dimethylamino)ethyl)-3′,8a′-dihydroxy-8′,8a′,9′,10′-tetrahydro-5′H,7′H-spiro[imidazolidine-4,6′-[9,4b](epiminoethano)phenanthrene]-2,5-dione], for which the EC50 was determined as 3.92 ± 0.571 µM and the Emax is 23.4 ± 1.68%.

With `CN(C)CCCN1CC[C@]23C[C@]4(CC[C@@]2(O)[C@H]1Cc1ccc(O)cc13)NC(=O)NC4=O` [Compound 30, (4S,4b′R,8a′S,9′R)-11′-(3-(dimethylamino)propyl)-3′,8a′-dihydroxy-8′,8a′,9′,10′-tetrahydro-5′H,7′H-spiro[imidazolidine-4,6′-[9,4b](epiminoethano)phenanthrene]-2,5-dione], the EC50 is above 20 µM and the Emax was determined as 1%.

Regarding `CCN1C(=O)N(CC)[C@]2(CC[C@@]3(O)[C@H]4Cc5ccc(O)cc5[C@@]3(CCN4CCc3ccccc3)C2)C1=O` [Compound 24, (4S,4b′R,8a′S,9′R)-1,3-diethyl-3′,8a′-dihydroxy-11′-phenethyl-8′,8a′,9′,10′-tetrahydro-5′H,7′H-spiro[imidazolidine-4,6′-[9,4b](epiminoethano)phenanthrene]-2,5-dione], the EC50 is 0.073 ± 0.0197 µM and the Emax is 65.3 ± 4.26%.

Turning to `COc1ccc2c(c1)[C@]13CCN(CCN(C)C)[C@H](C2)[C@]1(O)CC[C@@]1(C3)NC(=O)NC1=O` [Compound 3, (4S,4b′R,8a′S,9′R)-11′-(2-(dimethylamino)ethyl)-8a′-hydroxy-3′-methoxy-8′,8a′,9′,10′-tetrahydro-5′H,7′H-spiro[imidazolidine-4,6′-[9,4b](epiminoethano)phenanthrene]-2,5-dione], the EC50 is above 20 µM and the Emax was -0.8%.

For orientation: EC50 means the concentration giving half of the maximal effect. Read a high EC50 as a need for much substance. What is called Emax is the size of the effect at its maximum, as opposed to the concentration needed.
